The term IC50 denotes the concentration that inhibits the measured activity by half.

Each structure is given as a SMILES string. Where two headings read alike, the source gives them in different places. A value given as a limit tells only on which side of the number the result lay.

The assay concerns the target T1, Human Cav3.1 calcium channel (Homo sapiens, UniProt O43497).
T1 construct: expressed in transfected cells; host or cells: HEK-293 natClytin/TASK1+Cav3.1 cell line
The experiment in a line: Human Cav3.1 calcium channel patch clamp assay (SyncroPatch 384PE; single point and IC50, voltage dependent block). The format is cell-based. To be noted: for % Inhibition (Single Point Data): patch clamp. The procedure, abridged:
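Automated whole-cell patch clamp at room temperature, cells held at −120 mV; 100 ms step to −20 mV (resting block), then 1600 ms at −65 mV and a second −20 mV step (voltage-dependent block), every 15 s. Peak currents averaged over last 3 sweeps; % inhibition relative to nickel-sensitive current.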

Where [1] appears, read: Testing Conc 1.25, HEK-293 natClytin/TASK1+Cav3.1 cell line.
Where [2] appears, read: voltage dependent block (VDB), HEK-293 natClytin/TASK1+Cav3.1 cell line, read-out: Cav3.1 IC50.

T1 sequence (O43497 whole entry): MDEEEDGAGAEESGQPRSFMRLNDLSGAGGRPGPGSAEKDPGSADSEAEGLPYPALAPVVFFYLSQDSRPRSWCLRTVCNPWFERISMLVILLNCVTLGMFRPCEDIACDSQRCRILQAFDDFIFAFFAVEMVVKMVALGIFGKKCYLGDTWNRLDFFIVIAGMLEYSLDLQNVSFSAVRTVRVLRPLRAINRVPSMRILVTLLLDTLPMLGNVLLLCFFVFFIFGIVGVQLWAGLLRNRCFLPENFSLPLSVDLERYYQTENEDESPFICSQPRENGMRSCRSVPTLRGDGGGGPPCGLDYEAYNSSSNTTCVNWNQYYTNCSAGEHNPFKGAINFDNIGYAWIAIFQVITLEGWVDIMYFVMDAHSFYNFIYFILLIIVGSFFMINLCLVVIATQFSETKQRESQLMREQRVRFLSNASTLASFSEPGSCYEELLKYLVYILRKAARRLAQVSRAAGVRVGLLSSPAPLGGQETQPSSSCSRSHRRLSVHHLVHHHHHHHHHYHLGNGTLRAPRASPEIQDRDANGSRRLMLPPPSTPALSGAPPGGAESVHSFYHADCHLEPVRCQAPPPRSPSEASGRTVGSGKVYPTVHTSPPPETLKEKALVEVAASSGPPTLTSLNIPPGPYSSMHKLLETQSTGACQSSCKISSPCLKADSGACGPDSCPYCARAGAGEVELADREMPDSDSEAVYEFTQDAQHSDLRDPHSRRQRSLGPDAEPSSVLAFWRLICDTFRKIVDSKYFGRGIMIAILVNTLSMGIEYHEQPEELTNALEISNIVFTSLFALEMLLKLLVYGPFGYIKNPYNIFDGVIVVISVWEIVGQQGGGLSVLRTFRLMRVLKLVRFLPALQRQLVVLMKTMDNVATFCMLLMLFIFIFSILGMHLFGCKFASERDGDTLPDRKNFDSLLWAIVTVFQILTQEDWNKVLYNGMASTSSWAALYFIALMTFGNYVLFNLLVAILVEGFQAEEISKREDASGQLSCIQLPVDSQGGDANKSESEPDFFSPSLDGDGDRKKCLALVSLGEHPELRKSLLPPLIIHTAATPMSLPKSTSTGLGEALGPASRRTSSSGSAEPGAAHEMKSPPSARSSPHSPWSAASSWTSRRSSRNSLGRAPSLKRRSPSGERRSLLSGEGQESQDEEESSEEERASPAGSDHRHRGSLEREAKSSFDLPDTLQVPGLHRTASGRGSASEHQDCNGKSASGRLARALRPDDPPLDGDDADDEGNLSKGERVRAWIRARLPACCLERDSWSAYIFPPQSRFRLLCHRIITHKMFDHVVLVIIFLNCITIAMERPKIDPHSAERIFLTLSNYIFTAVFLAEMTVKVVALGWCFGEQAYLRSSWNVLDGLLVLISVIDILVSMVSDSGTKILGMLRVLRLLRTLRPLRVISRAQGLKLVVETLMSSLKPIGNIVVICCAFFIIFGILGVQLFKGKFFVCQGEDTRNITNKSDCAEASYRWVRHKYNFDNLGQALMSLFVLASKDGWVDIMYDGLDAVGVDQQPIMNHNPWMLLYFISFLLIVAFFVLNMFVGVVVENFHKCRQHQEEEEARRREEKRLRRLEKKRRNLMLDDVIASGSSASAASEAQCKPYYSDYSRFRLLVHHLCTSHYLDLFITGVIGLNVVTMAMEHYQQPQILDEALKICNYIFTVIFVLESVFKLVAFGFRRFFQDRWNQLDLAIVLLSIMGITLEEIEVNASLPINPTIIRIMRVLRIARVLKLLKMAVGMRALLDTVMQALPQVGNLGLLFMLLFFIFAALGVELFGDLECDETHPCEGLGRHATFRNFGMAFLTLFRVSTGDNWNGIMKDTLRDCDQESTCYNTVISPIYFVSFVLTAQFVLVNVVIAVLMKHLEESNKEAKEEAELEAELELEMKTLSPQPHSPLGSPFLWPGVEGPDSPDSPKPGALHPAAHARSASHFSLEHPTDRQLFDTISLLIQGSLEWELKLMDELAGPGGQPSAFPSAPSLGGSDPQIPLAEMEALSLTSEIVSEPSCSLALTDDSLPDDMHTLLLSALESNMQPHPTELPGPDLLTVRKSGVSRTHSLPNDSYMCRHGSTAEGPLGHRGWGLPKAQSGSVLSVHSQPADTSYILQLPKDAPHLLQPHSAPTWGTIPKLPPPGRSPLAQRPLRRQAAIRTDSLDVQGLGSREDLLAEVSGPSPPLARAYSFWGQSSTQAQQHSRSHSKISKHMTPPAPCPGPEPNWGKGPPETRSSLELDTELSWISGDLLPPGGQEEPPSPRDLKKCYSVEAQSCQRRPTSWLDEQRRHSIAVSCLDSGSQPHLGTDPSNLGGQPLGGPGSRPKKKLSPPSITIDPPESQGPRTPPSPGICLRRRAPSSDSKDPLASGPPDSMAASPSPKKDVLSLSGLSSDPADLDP

Take `COC12CC3CC(CC(NC(=O)CN4C[C@@H]5C[C@H]4CN5CC(=O)NC(C)(C)C)(C3)C1)C2` [Compound 342]: the “% Inhibition (Single Point Data)” value under setting [1] worked out at 25.743%. The IC50 under setting [2] is 1.35 µM. For `Cc1ccnc2[nH]c(CN3CC4CCC(C3)N4CC(=O)NC(C)(C)C)nc12` [Compound 187], in that order: 46.159% and 1 µM. In the same order, the values of `Cc1ccc2ccnc(NCC3CCN(CC(=O)NC(C)(C)C)CC3)c2n1` [Compound 102] are 25.803% and 4.43 µM. In the same order, the values of `O=C(CN1CC2CC1CN2CC(=O)NC1(C(F)(F)F)CC1)Nc1cc(F)cc(Cl)c1` (centres unmarked) [Compound 223] are 75.83% and 1.25 µM. For `Cc1ccc(Cl)cc1NC(=O)CN1CC2CC(C1)N2CC(=O)NC(C)(C)C` [Compound 221], the “% Inhibition (Single Point Data)” value under setting [1] is reported as 48.175%. Moreover, the IC50 under setting [2] was 0.882 µM. On to `Fc1cc(Cl)c2nc(CN3CC4CC(C3)N4CCC3CCC(F)(F)CC3)[nH]c2c1` [Compound 104], for which the IC50 is below 0.0782 µM. Also, the “% Inhibition (Single Point Data)” value under setting [1] was 99.877%. Turning to `CC(C)(C)NC(=O)CN1C[C@@H]2C[C@H]1CN2CC(=O)NC1CCCC(OC(F)F)C1` (some centres unmarked) [Compound 343], the “% Inhibition (Single Point Data)” value under setting [1] was 32.872%. For the same compound, under setting [2], the 50% inhibitory concentration (IC50) was determined as 1.93 µM.

Turning to `CC(C)(C)NC(=O)CN1C2CC1CN(CC(=O)NC13CCC(CC1)C3)C2` [Compound 308], the “% Inhibition (Single Point Data)” value under setting [1] is given as 33.02%. The IC50 under setting [2] was determined as 1.93 µM. For the compound `O=C(CN1C[C@@H]2C[C@H]1CN2CCC1CCC(F)(F)CC1)NC12CC3CC(CC(C3)C1)C2` [Compound 318], the “% Inhibition (Single Point Data)” value under setting [1] was 88.753%. For the same compound, the IC50 under setting [2] was found to be 0.304 µM. Consider `COc1cc(NC(=O)CN2CC3CC(C2)N3CC(=O)NC2(C(F)(F)F)CC2)cc(F)c1F` [Compound 352], for which the IC50 under setting [2] is 0.133 µM.

Turning to `O=C(CN1C[C@H]2C[C@@H]1CN2CC(=O)NC1(C(F)(F)F)CC1)Nc1ccc(F)c(Cl)c1` [Compound 28], the “% Inhibition (Single Point Data)” value under setting [1] is recorded as 39.491%. Further, the IC50 under setting [2] amounted to 1.57 µM. As to `OC(CN1CCN(Cc2nc3c(Cl)ccc(F)c3[nH]2)CC1)C1CCCCC1` (centres unmarked) [Compound 156], the “% Inhibition (Single Point Data)” value under setting [1] was 86.133%.

Turning to `CC1(C)CC(CN2C3CC2CN(CC(=O)NC24CC5CC(CC(C5)C2)C4)C3)CCO1` (centres unmarked) [Compound 299], under setting [1], the “% Inhibition (Single Point Data)” value was 43.196%. The IC50 under setting [2] was found to be 0.932 µM.

Regarding `CC(C)(C)NC(=O)CN1C[C@H]2COC[C@@H](C1)[C@@H]2CNC(=O)c1cc(F)cc(Cl)c1` [Compound 369], under setting [2], the IC50 came to 0.499 µM. Still for that read-out and setting: in the case of `CC(C)(C)CC(=O)N1C2CC1CN(Cc1nc3c(Cl)cc(F)cc3[nH]1)C2` [Compound 116] it was 2.46 µM. Turning to `CC(C)(C)NC(=O)CN1C2CCC1CN(Cc1nc3c(Cl)cccc3[nH]1)C2` [Compound 189], the IC50 is below 0.0782 µM. Further, the “% Inhibition (Single Point Data)” value under setting [1] was 92.283%. Regarding `CC(C)(C)NC(=O)CN1C2CCC1CN(CC(=O)NCc1cc3ccccc3o1)C2` [Compound 5], under setting [1], the “% Inhibition (Single Point Data)” value was determined as 22.469%.

On to `CC(C)(NC(=O)CN1CC2CC(C1)N2Cc1nc2c(Cl)ccc(F)c2[nH]1)C(F)(F)F` [Compound 127], for which the “% Inhibition (Single Point Data)” value under setting [1] was 52.415%. Also, the IC50 under setting [2] stood at 0.992 µM. Turning to `CC1(NC(=O)CN2C3CC2CN(CC(=O)Nc2ccc(F)c(Cl)c2)C3)CC1` [Compound 239], the “% Inhibition (Single Point Data)” value under setting [1] stood at 58.273%. Besides, under setting [2], the IC50 was 0.587 µM. As for `CC(C)(C)NC(=O)CN1C[C@@H]2C[C@H]1CN2CC(=O)Nc1cc(Cl)cc(OC(F)F)c1` [Compound 294], the “% Inhibition (Single Point Data)” value under setting [1] stood at 101.56%. The IC50 under setting [2] is 0.0587 µM.

`CC(C)(C)NC(=O)CN1CCCN(CC(=O)NC23CC4CC(CC(C4)C2)C3)CC1` [Compound 32]: the “% Inhibition (Single Point Data)” value (Testing Conc 1, HEK-293 natClytin/TASK1+Cav3.1 cell line) was 56.921%.

On to `CC1(CN2C3CC2CN(Cc2nc4c(Cl)cc(F)cc4[nH]2)C3)CCOCC1` [Compound 106], for which, under setting [1], the “% Inhibition (Single Point Data)” value stood at 52.218%. In addition, the IC50 under setting [2] stood at 1.11 µM. In the case of `CC(C)(C)NC(=O)CN1C2CC1CN(CC(=O)NC1CCCC(OC(F)F)C1)C2` (centres unmarked) [Compound 321], the “% Inhibition (Single Point Data)” value under setting [1] worked out at 66.321%. Also, the IC50 under setting [2] was found to be 0.819 µM.

As for `C[C@H](NC(=O)CN1CC2CC(C1)N2CC(=O)NC(C)(C)C)C12CC3CC(CC(C3)C1)C2` [Compound 325], the “% Inhibition (Single Point Data)” value under setting [1] is reported as 22.59%. For the same compound, the IC50 under setting [2] came out at 2.6 µM. On to `Fc1cc(Cl)c2nc(CN3CC4CC(C3)N4CC3CCOCC3)[nH]c2c1` [Compound 117], for which the “% Inhibition (Single Point Data)” value under setting [1] came to 40.989%. Besides, under setting [2], the IC50 was 1.36 µM. As for `CC(C)(C)NC(=O)CN1C[C@@H]2C[C@H]1CN2CCNc1nccc2ccc(Cl)cc12` [Compound 60], the “% Inhibition (Single Point Data)” value under setting [1] is 60.189%. Moreover, the IC50 under setting [2] was 0.605 µM. In the same order, the values of `CC(C)(NC(=O)CN1C2CC1CN(CC(=O)Nc1cc(F)cc(OC(F)F)c1)C2)C(F)(F)F` [Compound 224] are 83.389% and 0.159 µM. In the same order, the values of `CC(C)(C)NC(=O)CN1C[C@@H]2C[C@H]1CN2C(=O)NC12CC3CC(CC(C3)C1)C2` [Compound 304] are 25.21% and 4.77 µM. Take `O=C(CN1C[C@@H]2C[C@H]1CN2CC(=O)NC1(C(F)(F)F)CC1)Nc1ccc(F)c(OC(F)F)c1` [Compound 330]: the “% Inhibition (Single Point Data)” value under setting [1] was 96.893%. With `CC(C)(C)NC(=O)CN1C2CC1CN(CC(=O)Nc1cc(Cl)cc(Cl)c1)C2` [Compound 286], the “% Inhibition (Single Point Data)” value under setting [1] came to 89.866%. Further, the IC50 under setting [2] stood at 0.106 µM.

As to `CC(C)(C)NC(=O)CN1C2CC1CN(CC(=O)Nc1ccc(F)c(OC(F)F)c1)C2` [Compound 244], the “% Inhibition (Single Point Data)” value under setting [1] is recorded as 90.346%. The IC50 under setting [2] was 0.179 µM.

As to `O=C(CN1CC2CC(C1)N2CCNC(=O)C1(C(F)(F)F)CCC1)Nc1cc(F)cc(Cl)c1` [Compound 229], the “% Inhibition (Single Point Data)” value under setting [1] was found to be 89.382%.

Turning to `COc1cc(F)cc(NC(=O)CN2CC3CC(C2)N3CC(=O)NC2(C(F)(F)F)CC2)c1` [Compound 333], the “% Inhibition (Single Point Data)” value under setting [1] amounted to 82.813%. Also, the IC50 under setting [2] was determined as 0.178 µM. In the same order, the values of `COc1cc(NC(=O)CN2C[C@@H]3C[C@H]2CN3CC(=O)NC(C)(C)C)ccc1Cl` [Compound 337] are 95.366% and below 0.0782 µM.

As for `CC(C)(C)NC(=O)CN1CC2CCC1CN2Cc1nc2c(Cl)cc(F)cc2[nH]1` (centres unmarked) [Compound 63], the “% Inhibition (Single Point Data)” value under setting [1] was 93.839%. Further, the IC50 under setting [2] was 0.167 µM. `Fc1cc(Cl)c2nc(CN3CCN(Cc4cccc(Cl)c4)CC3)[nH]c2c1` [Compound 67]: under setting [1], the “% Inhibition (Single Point Data)” value turned out to be 83.039%. The 50% inhibitory concentration (IC50) under setting [2] stood at 0.49 µM. `CC(C)(C)NC(=O)CN1CC2CC1CN2CC(=O)Nc1cccc(Cl)c1` (centres unmarked) [Compound 131]: the “% Inhibition (Single Point Data)” value under setting [1] was found to be 83.36%. The IC50 under setting [2] was found to be 2.38 µM. For `N#CC1(CN2C3CC2CN(Cc2nc4c(Cl)ccc(F)c4[nH]2)C3)CCC(F)(F)CC1` [Compound 179], in that order: 32.612% and 1.97 µM. As to `CC(C)(C)NC(=O)CN1C2CC1CN(Cc1nc3c(Cl)cc(F)cc3[nH]1)C2` [Compound 62, N-(tert-butyl)-2-(3-((4-chloro-6-fluoro-1H-benzo[d]imidazol-2-yl)methyl)-3,6-diazabicyclo[3.1.1]heptan-6-yl)acetamide], the IC50 was below 0.0782 µM. Further, the “% Inhibition (Single Point Data)” value under setting [1] came to 102.05%. With `CC(C)(C)NC(=O)CN1C2CC1CN(C(=O)c1nc3c(Cl)cc(F)cc3[nH]1)C2` [Compound 210], the half-maximal inhibitory concentration (IC50) under setting [2] came to 1.91 µM. On to `CC(C)(C)C(O)CN1C[C@@H]2C[C@H]1CN2CC(=O)NC12CC3CC(CC(C3)C1)C2` (some centres unmarked) [Compound 297], for which, under setting [1], the “% Inhibition (Single Point Data)” value worked out at 63.628%. The IC50 under setting [2] came to 0.703 µM. For `COc1cc(NC(=O)CN2C[C@@H]3C[C@H]2CN3CC(=O)NC2(C(F)(F)F)CC2)cc(F)c1F` [Compound 351], the IC50 under setting [2] is 0.131 µM. `O=C(CN1C2CC1CN(Cc1nc3c(Cl)cc(F)cc3[nH]1)C2)OC1CCCC1` [Compound 141]: the “% Inhibition (Single Point Data)” value under setting [1] amounted to 100.15%. Besides, the IC50 under setting [2] was 0.162 µM. Take `CCC(C)(C)NC(=O)CN1C2CCC1CN(Cc1nc3c(Cl)cc(F)cc3[nH]1)C2` [Compound 75]: under setting [1], the “% Inhibition (Single Point Data)” value came to 99.169%.

For the compound `CC1(C)CCCC(=O)N1CCN1C2CC1CN(Cc1nc3c(Cl)cc(F)cc3[nH]1)C2` [Compound 103], under setting [1], the “% Inhibition (Single Point Data)” value is listed as 96.655%. Also, the IC50 under setting [2] is 0.109 µM. In the same order, the values of `N#CC1(CN2C3CC2CN(CC(=O)Nc2cc(F)cc(Cl)c2)C3)CCCCC1` [Compound 51] are 29.781% and 1.44 µM. For `Cc1cc(F)cc2[nH]c(CN3CC4CCC(C3)N4CC(=O)NC(C)(C)C)nc12` [Compound 190], in that order: 94.944% and 0.21 µM. For `CC(C)(C)NC(=O)CN1C2CC1CN(C(=O)NC13CC4CC(CC(C4)C1)C3)C2` [Compound 303], in that order: 23.993% and 8.85 µM. For the compound `CC1(C)CCN1C(=O)CN1C[C@@H]2C[C@H]1CN2CC(=O)NC12CC3CC(CC(C3)C1)C2` [Compound 328], the “% Inhibition (Single Point Data)” value under setting [1] was 48.833%. With `CC(C)(C)NC(=O)CN1C[C@@H]2C[C@H]1CN2CC(=O)Nc1ccc(F)c(Cl)c1` [Compound 23], the “% Inhibition (Single Point Data)” value under setting [1] came out at 91.472%. On to `Fc1cc(Cl)c2nc(CN3CCN(CCc4ccccc4)CC3)[nH]c2c1` [Compound 69], for which, under setting [1], the “% Inhibition (Single Point Data)” value amounted to 86.68%. The IC50 under setting [2] amounted to 0.394 µM.

These data come from patent US20250213558A1, “T-TYPE CALCIUM CHANNEL MODULATORS COMPRISING A PIPERAZINE OR 1,4-DIAZEPANE CORE AND METHODS OF USE THEREOF” (Praxis Precision Medicines, Inc., priority 2022, published 2025).
